The assay can be described thus: Inhibition of cell proliferation of activated rat HSC-T6 cells incubated for 24 hrs by MTT assay. To be noted: HSC-T6, 24 h. It counts as functional, cell-based.

The values that follow come from ChEMBL document CHEMBL4043072, “Catechin-Bound Ceanothane-Type Triterpenoid Derivatives from the Roots of Zizyphus jujuba” (J Nat Prod, 2017).

SMILES strings stand for the structures.

Turning to `O=C(O[C@@H]1Cc2c(O)cc(O)cc2O[C@@H]1c1cc(O)c(O)c(O)c1)c1cc(O)c(O)c(O)c1` [EPIGALOCATECHIN GALLATE], it took 31.6 µM to reach half-maximal inhibition (IC50). For `C=C(C)[C@@H]1CC[C@]2(C(=O)O)CC[C@]3(C)[C@H](CC[C@@H]4[C@@]5(C)[C@H]6C(=O)c7c(cc(O)c8c7O[C@@H](c7ccc(O)c(O)c7)[C@@H](O)C8)O[C@@H]6C(C)(C)[C@@H]5CC[C@]43C)[C@@H]12` the value was 43.5 µM.
